Assay results as given in patent US7396834B2, “4(Phenyl-piperazinyl-methyl) benzamide derivatives and their use for the treatment of pain or gastrointestinal disorders” (AstraZeneca AB, priority 2002, dated 2008).

Columns and labels:
cloned human μ receptors = biological target: T1, cloned human μ receptors (Homo sapiens, UniProt P35372); assay: Human μ receptor radioligand binding assay
T1 construct: expressed in transfected cells; host or cells: human HEK-293S cells, grown in suspension under geneticin selection

cloned human δ receptors [1] = biological target: T2, cloned human δ receptors (Homo sapiens, UniProt P41143); assay: Human δ receptor GTP[γ]35S functional assay (low expression); assay type: biochemical; settings: for Emax: relative to SNC80, lower expression level, range over the listed compounds
T2 construct: expressed in transfected cells; host or cells: human HEK-293S cells, grown in suspension under geneticin selection
Procedure: (§1) Human 293S cells expressing cloned human κ, δ and μ receptors and neomycin resistance are grown in suspension at 37° C. and 5% CO2 in shaker flasks containing calcium-free DMEM10% FBS, 5% BCS, 0.1% Pluronic F-68, and 600 μg/ml geneticin.
(§2) Cells are pelleted and resuspended in lysis buffer (50 mM Tris, pH 7.0, 2.5 mM EDTA, with PMSF added just prior to use to 0.1 mM from a 0.1 M stock in ethanol), incubated on ice for 15 min, then homogenized with a polytron for 30 sec. The suspension is spun at 1000 g (max) for 10 min at 4° C. The supernatant is saved on ice and the pellets resuspended and spun as before. The supernatants from both spins are combined and spun at 46,000 g(max) for 30 min. The pellets are resuspended in cold Tris buffer (50 mM Tris/Cl, pH 7.0) and spun again. The final pellets are resuspended in membrane buffer (50 mM Tris, 0.32 M sucrose, pH 7.0). Aliquots (1 ml) in polypropylene tubes are frozen in dry ice/ethanol and stored at −70° C. until use. The protein concentrations are determined by a modified Lowry assay with sodium dodecyl sulfate.
The agonist activity of the compounds is measured by determining the degree to which the compounds receptor complex activates the binding of GTP to G-proteins to which the receptors are coupled. In the GTP binding assay, GTP[γ]^35S is combined with test compounds and membranes from HEK-293S cells expressing the cloned human opioid receptors or from homogenised rat and mouse brain. Agonists stimulate GTP[γ]^35S binding in these membranes. The EC50 and Emax values of compounds are determined from dose-response curves. Right shifts of the dose response curve by the delta antagonist naltrindole are performed to verify that agonist activity is mediated through delta receptors. For human δ receptor functional assays, EC50 (low) is measured when the human δ receptors used in the assay were expressed at lower levels in comparison with those used in determining EC50 (high). The Emax values were determined in relation to the standard δ agonist SNC80, i.e., higher than 100% is a compound that have better efficacy than SNC80.

cloned human δ receptors [2] = biological target: T2, cloned human δ receptors; assay: Human δ receptor radioligand binding assay
cloned human δ receptors [3] = biological target: T2, cloned human δ receptors; assay: Human δ receptor GTP[γ]35S functional assay (high expression); assay type: biochemical
Procedure: as §1
as §2, with “The final pellets are resuspended in membrane buffer (50 mM Tris, 0.32 M sucrose, pH 7.0). Aliquots (1 ml) in polypropylene tubes are frozen in dry ice/ethanol and stored at −70° C. until use.” left out
The agonist activity of the compounds is measured by determining the degree to which the compounds receptor complex activates the binding of GTP to G-proteins to which the receptors are coupled. […] The EC50 and Emax values of compounds are determined from dose-response curves. […] For human δ receptor functional assays, EC50 (low) is measured when the human δ receptors used in the assay were expressed at lower levels in comparison with those used in determining EC50 (high). […]

[4] = biological target: T3, δ receptors in rat brain membranes (Rattus norvegicus, UniProt P33533); assay: Rat brain GTPγ35S functional assay; assay type: biochemical
T3 construct: membranes from HEK-293S cells expressing the cloned human opioid receptors or from homogenised rat and mouse brain; from tissue; host or cells: rat brain homogenate membranes
Procedure: Rat brains are weighed and rinsed in ice-cold PBS (containing 2.5 mM EDTA, pH 7.4). The brains are homogenized with a polytron for 30 sec (rat) in ice-cold lysis buffer (50 mM Tris, pH 7.0, 2.5mM EDTA, with phenylmethylsulfonyl fluoride added just prior use to […] from a 0.5M stock in DMSO:ethanol).
The agonist activity of the compounds is measured by determining the degree to which the compounds receptor complex activates the binding of GTP to G-proteins to which the receptors are coupled. In the GTP binding assay, GTP[γ]^35S is combined with test compounds and membranes from HEK-293S cells expressing the cloned human opioid receptors or from homogenised rat and mouse brain. Agonists stimulate GTP[γ]^35S binding in these membranes. The EC50 and Emax values of compounds are determined from dose-response curves. […] For human δ receptor functional assays, EC50 (low) is measured when the human δ receptors used in the assay were expressed at lower levels in comparison with those used in determining EC50 (high). […]
Rat brain membranes are thawed at 37° C., passed 3 times through a 25-gauge blunt-end needle and diluted in the GTPYS binding (50 mM Hepes, 20 mM NaOH, 100 mM NaCl, 1 mM EDTA, 5 mM MgCl2, pH 7.4, Add fresh: 1 mM DTT, 0.1% BSA). […] The basal and maximal stimulated binding are determined in absence and presence of 3 μM SNC-80.

cloned human κ receptors = cloned human κ receptors (Homo sapiens, UniProt P41145); assay: Human κ receptor radioligand binding assay; settings: membranes of human 293S cells; Table 1
[5] = Human μ IC50, Table 2, range over the listed compounds
[6] = Human δ IC50, Table 2, range over the listed compounds

T2 sequence (P41143 whole entry): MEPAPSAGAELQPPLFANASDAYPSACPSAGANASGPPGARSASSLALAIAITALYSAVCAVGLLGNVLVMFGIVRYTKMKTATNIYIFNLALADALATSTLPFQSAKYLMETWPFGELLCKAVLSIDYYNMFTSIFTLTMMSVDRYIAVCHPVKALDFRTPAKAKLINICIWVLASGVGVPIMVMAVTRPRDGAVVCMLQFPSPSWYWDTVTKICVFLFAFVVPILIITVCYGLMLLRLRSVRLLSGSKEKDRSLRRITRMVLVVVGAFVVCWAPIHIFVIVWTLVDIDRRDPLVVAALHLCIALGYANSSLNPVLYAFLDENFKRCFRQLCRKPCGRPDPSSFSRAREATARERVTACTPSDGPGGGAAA
T1 sequence (P35372 whole entry): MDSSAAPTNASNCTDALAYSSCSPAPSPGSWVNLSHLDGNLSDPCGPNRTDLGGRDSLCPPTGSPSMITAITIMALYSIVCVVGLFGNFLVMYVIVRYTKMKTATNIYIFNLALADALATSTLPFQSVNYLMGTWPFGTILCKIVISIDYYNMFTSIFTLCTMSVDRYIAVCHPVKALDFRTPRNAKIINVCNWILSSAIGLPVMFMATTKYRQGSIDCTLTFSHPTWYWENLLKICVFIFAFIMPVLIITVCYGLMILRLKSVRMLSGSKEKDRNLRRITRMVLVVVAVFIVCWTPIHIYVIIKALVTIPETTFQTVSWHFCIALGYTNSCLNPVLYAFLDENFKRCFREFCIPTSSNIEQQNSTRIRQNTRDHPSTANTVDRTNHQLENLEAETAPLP
T3 sequence (P33533 whole entry): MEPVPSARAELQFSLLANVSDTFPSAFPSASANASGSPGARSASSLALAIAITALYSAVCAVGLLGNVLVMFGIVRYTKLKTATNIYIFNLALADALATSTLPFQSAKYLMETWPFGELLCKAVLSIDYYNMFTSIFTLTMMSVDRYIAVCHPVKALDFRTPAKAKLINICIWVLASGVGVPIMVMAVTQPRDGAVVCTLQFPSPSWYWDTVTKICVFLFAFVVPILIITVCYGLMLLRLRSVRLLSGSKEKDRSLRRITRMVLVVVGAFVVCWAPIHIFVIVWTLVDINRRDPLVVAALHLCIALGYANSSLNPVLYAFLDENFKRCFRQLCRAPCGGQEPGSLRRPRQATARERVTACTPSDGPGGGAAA
Sequence of cloned human κ receptors (P41145 whole entry): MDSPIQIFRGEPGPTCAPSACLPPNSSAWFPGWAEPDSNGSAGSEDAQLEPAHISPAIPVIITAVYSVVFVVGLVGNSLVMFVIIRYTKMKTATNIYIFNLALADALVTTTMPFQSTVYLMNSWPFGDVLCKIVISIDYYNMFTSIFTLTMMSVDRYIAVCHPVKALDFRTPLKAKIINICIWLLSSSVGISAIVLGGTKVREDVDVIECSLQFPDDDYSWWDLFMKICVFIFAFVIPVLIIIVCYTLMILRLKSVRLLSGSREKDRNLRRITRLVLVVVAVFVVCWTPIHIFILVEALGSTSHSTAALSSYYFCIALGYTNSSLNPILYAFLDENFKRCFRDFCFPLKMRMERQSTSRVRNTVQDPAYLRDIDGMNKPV

Q: How did the IC50 (cloned human μ receptors; [5]) turn out when `CCN(CC)C(=O)c1ccc(C(c2cccc(C(N)=O)c2)N2CCN(Cc3ccccc3)CC2)cc1` (single isomer, unassigned) [Compound 1b, 3-[(4-[(diethylamino)carbonyl]phenyl)(4-benzyl-piperazin-1-yl)methyl]benzamide] was run?
A: Its IC50 is 45 to 1720 nM.

Q: And the EC50 (cloned human δ receptors [1])?
A: Its EC50 is 0.5 to 83 nM.

Q: And the Emax (cloned human δ receptors [1])?
A: The Emax was 91 to 104%.

Q: And the IC50 (cloned human δ receptors [2]; [6])?
A: Its IC50 is 0.14 to 3.73 nM.

Q: `CCN(CC)C(=O)c1ccc(C(c2cccc(C(=O)NC)c2)N2CCN(Cc3ccccc3)CC2)cc1` (single isomer, unassigned) [Compound 3a, 3-[[4-[(diethylamino)carbonyl]phenyl][4-(phenylmethyl)-1-piperazinyl]methyl]-N-methyl-benzamide] was tested. Which IC50 (cloned human μ receptors; [5]) did it give?
A: Its IC50 is 45 to 1720 nM.

Q: And the EC50 (cloned human δ receptors [1])?
A: Its EC50 is 0.5 to 83 nM.

Q: What about the Emax (cloned human δ receptors [1]) of the same compound?
A: The Emax was 91 to 104%.

Q: What about the IC50 (cloned human δ receptors [2]; [6]) of the same compound?
A: Its IC50 is 0.14 to 3.73 nM.

Q: What does the source list for `CCN(CC)C(=O)c1ccc(C(c2cccc(C(N)=O)c2)N2CCN(Cc3ccco3)CC2)cc1` (single isomer, unassigned) [Compound 2a, 3-{(4-[(diethylamino)carbonyl]phenyl)[4-(2-furylmethyl)-piperazin-1-yl]methyl}benzamide]?
A: IC50 (cloned human μ receptors; [5]): 45 to 1720 nM; EC50 (cloned human δ receptors [1]): 0.5 to 83 nM; Emax (cloned human δ receptors [1]): 91 to 104%; IC50 (cloned human δ receptors [2]; [6]): 0.14 to 3.73 nM

Q: With `CCN(CC)C(=O)c1ccc(C(c2cccc(C(N)=O)c2)N2CCN(Cc3ccccc3)CC2)cc1` (single isomer, unassigned) [Compound 1a, 3-[(4-[(diethylamino)carbonyl]phenyl)(4-benzyl-piperazin-1-yl)methyl]benzamide] as the compound, how does the EC50 (cloned human δ receptors [3]) read?
A: The EC50 was 0.29 nM.

Q: And the Emax (cloned human δ receptors [3]; relative to standard δ agonist SNC80, higher expression level)?
A: Its Emax is 101%.

Q: And the IC50 (cloned human μ receptors; Human μ IC50, membranes of human 293S cells, Table 1)?
A: Its IC50 is 7.7 nM.

Q: And the EC50 [4]?
A: Its EC50 is 0.2 nM.

Q: And the Emax ([4]; relative to SNC80, rat brain membranes)?
A: Its Emax is 170%.

Q: What about the IC50 (cloned human κ receptors) of the same compound?
A: Its IC50 is 112 nM.

Q: What about the IC50 (cloned human δ receptors [2]; Human δ IC50, membranes of human 293S cells, displacement of radioligand, Table 1) of the same compound?
A: Its IC50 is 0.26 nM.
